The test system of this experiment is methicillin-resistant S. aureus (FPR3757). The experiment in a line: MIC against clinical MRSA strain FPR3757 in Mueller-Hinton broth (CLSI). It is filed as cell-based, Staphylococcus aureus. The source says: The first set of compounds evaluated were analogs at the C-7 and C-8 positions of the initial quinolone hit DNAC-2 since the other HTS hits identified (data not shown) were substituted at these positions (Table 1). Applicants first explored modification at the C-7 position with a small series of electron-donating and withdrawing substituents. […] However, analogs containing electron donating groups at C-7 including ethyl 7, benzyloxy 8, methoxy 9 and methylthio 10 are weakly active displaying MICs of 320-640 μg/mL indicating electron-donating substituents at C-7 are poorly tolerated. […] The C-8 position was evaluated with trifluoromethyl 4 and trifluoromethoxy 5 containing the optimal C-7 substituents. Both 4 and 5 are equipotent to the corresponding C-7 analogs 2 and 3 indicating some flexibility of the quinolone scaffold.

[1] abbreviates: MRSA clinical strain FPR3757, Mueller-Hinton broth, CLSI guidelines, complete inhibition of observable growth.
Where [2] appears, read: Staphylococcus aureus, MRSA, MRSA clinical strain FPR3757, Mueller-Hinton broth, CLSI guidelines, complete inhibition of observable growth, read-out: MIC.

Data on 51 compounds can be found in patent US20220274927A1, “MEMBRANE-ACTIVE ANTI-BACTERIAL COMPOUNDS AND USES THEREOF” (Trustees of Dartmouth College, priority 2019, published 2022).

Molecules are shown by their SMILES. Values after ≈ are worked out from the molar mass of the structure shown. Like-named read-outs stand apart in the source and are kept apart here.

As usually defined, the MIC is the smallest concentration in the dilution series that meets the test's criterion for growth inhibition. On to `FC(F)(F)Oc1cccc(Nc2cc(C(F)(F)F)nc3c(OC(F)(F)F)cccc23)c1` [Compound 1], for which, under setting [1], the MIC amounted to 8 µg/mL (≈ 17.5 µM).
In the case of `O=c1cc(C(F)(F)F)[nH]c2cc(C(F)(F)F)ccc12` [Compound 2], the MIC reads like this: under setting [1], 5 µg/mL (≈ 17.8 µM); under setting [2], 4 to 8 µg/mL (≈ 14.2 to 28.5 µM).
Take `O=c1cc(C(F)(F)F)[nH]c2cc(OC(F)(F)F)ccc12` [Compound 3]: the MIC under setting [2] was 4 to 8 µg/mL (≈ 13.5 to 26.9 µM).
In the case of `O=c1cc(C(F)(F)F)[nH]c2c(C(F)(F)F)cccc12` [Compound 4], the MIC under setting [2] is 2 to 4 µg/mL (≈ 7.11 to 14.2 µM).
As to `O=c1cc(C(F)(F)F)[nH]c2c(OC(F)(F)F)cccc12` [Compound 5], under setting [2], the MIC stood at 5 µg/mL (≈ 16.8 µM).
With `O=c1cc(C(F)(F)F)[nH]c2cc(Cl)ccc12` [Compound 6], the MIC under setting [2] is 20 µg/mL (≈ 80.8 µM).
In the case of `CCc1ccc2c(=O)cc(C(F)(F)F)[nH]c2c1` [Compound 7], the MIC reads like this: under setting [1], 320 µg/mL (≈ 1330 µM); under setting [2], 320 to 640 µg/mL (≈ 1330 to 2650 µM).
`O=c1cc(C(F)(F)F)[nH]c2cc(OCc3ccccc3)ccc12` [Compound 8] came in with an MIC under setting [1] of 640 µg/mL (≈ 2000 µM).
As to `COc1ccc2c(=O)cc(C(F)(F)F)[nH]c2c1` [Compound 9], for the setting “MRSA FPR3757 MIC ratio”, the “fold loss of potency (MIC) relative to the comparator” value was 80-160 fold. Besides, the MIC reads like this: under setting [1], 640 µg/mL (≈ 2630 µM); under setting [2], 320 to 640 µg/mL (≈ 1320 to 2630 µM).
As to `CSc1ccc2c(=O)cc(C(F)(F)F)[nH]c2c1` [Compound 10], under setting [1], the minimal inhibitory concentration (MIC) amounted to 640 µg/mL (≈ 2470 µM).
`FC(F)(F)c1ccc2c(Nc3ccccc3)cc(C(F)(F)F)nc2c1` [Compound 11] displayed an MIC (Staphylococcus aureus, MRSA) of 128 µg/mL (≈ 359 µM).
With `CC(C)c1ccccc1Nc1cc(C(F)(F)F)nc2cc(C(F)(F)F)ccc12` [Compound 12], the MIC under setting [2] came out at 320 µg/mL (≈ 803 µM).
As to `CC(=O)c1cccc(Nc2cc(C(F)(F)F)nc3cc(C(F)(F)F)ccc23)c1` [Compound 13], the MIC (Staphylococcus aureus, MRSA) was more than 128 µg/mL.
As to `N#Cc1cccc(Nc2cc(C(F)(F)F)nc3cc(C(F)(F)F)ccc23)c1` [Compound 14], under setting [1], the MIC is more than 32 µg/mL.
For `FC(F)(F)c1ccc2c(Nc3ccccc3Cl)cc(C(F)(F)F)nc2c1` [Compound 15], the minimum inhibitory concentration (MIC) under setting [2] was more than 16 µg/mL.
Take `FC(F)(F)c1ccc2c(Nc3cccc(Cl)c3)cc(C(F)(F)F)nc2c1` [Compound 16]: the MIC by setting is: under setting [1], 0.25 µg/mL (≈ 0.64 µM); under setting [2], 0.125 to 0.25 µg/mL (≈ 0.32 to 0.64 µM).
Turning to `FC(F)(F)c1ccc2c(Nc3ccc(Cl)cc3)cc(C(F)(F)F)nc2c1` [Compound 17], the MIC was 0.12 µg/mL (≈ 0.307 µM) under setting [1] and 0.125 to 0.25 µg/mL (≈ 0.32 to 0.64 µM) under setting [2].
`Fc1cccc(Nc2cc(C(F)(F)F)nc3cc(C(F)(F)F)ccc23)c1` [Compound 18]: the “fold loss of potency (MIC) relative to the comparator” value (MRSA FPR3757 MIC ratio) is listed as 16-64 fold.
Turning to `FC(F)(F)c1ccc2c(Nc3cccc(Br)c3)cc(C(F)(F)F)nc2c1` [Compound 19], the MIC under setting [2] worked out at 0.25 µg/mL (≈ 0.574 µM).
`FC(F)(F)c1ccc2c(Nc3cccc(I)c3)cc(C(F)(F)F)nc2c1` [Compound 20]: under setting [2], the MIC is 0.25 µg/mL (≈ 0.518 µM).
On to `Fc1ccc(Nc2cc(C(F)(F)F)nc3cc(C(F)(F)F)ccc23)cc1F` [Compound 21], for which the MIC fell in the range of 0.12 to 0.25 µg/mL under setting [1] and 0.125 to 0.25 µg/mL (≈ 0.319 to 0.637 µM) under setting [2].
For the compound `OCc1cccc(Nc2cc(C(F)(F)F)nc3cc(C(F)(F)F)ccc23)c1` [Compound 23], the MIC under setting [2] was more than 16 µg/mL.
`CSc1cccc(Nc2cc(C(F)(F)F)nc3cc(C(F)(F)F)ccc23)c1` [Compound 24] registered an MIC under setting [1] of 0.25 to 0.5 µg/mL.
As for `COc1cccc(Nc2cc(C(F)(F)F)nc3cc(C(F)(F)F)ccc23)c1` [Compound 25], under setting [2], the MIC was more than 64 µg/mL.
On to `FC(F)(F)c1cccc(Nc2cc(C(F)(F)F)nc3cc(C(F)(F)F)ccc23)c1` [Compound 26], for which the “fold increase in potency (MIC) relative to the comparator” value (MRSA FPR3757 MIC ratio) was 16 fold. The MIC under setting [2] came to 0.25 µg/mL (≈ 0.589 µM).
Regarding `FC(F)(F)Oc1cccc(Nc2cc(C(F)(F)F)nc3cc(C(F)(F)F)ccc23)c1` [Compound 27], the MIC under setting [2] was determined as 8 µg/mL (≈ 18.2 µM).
For the compound `FC(F)(F)c1ccc2c(Nc3ccc4c(c3)OCO4)cc(C(F)(F)F)nc2c1` [Compound 28], the MIC under setting [1] is more than 4 µg/mL.
On to `FC(F)(F)c1ccc2c(Nc3cccc(N4CCOCC4)c3)cc(C(F)(F)F)nc2c1` [Compound 29], for which the MIC under setting [2] was more than 16 µg/mL.
For the compound `FC(F)(F)c1ccc2c(Nc3ccc(N4CCOCC4)cc3)cc(C(F)(F)F)nc2c1` [Compound 30], under setting [2], the MIC is more than 16 µg/mL.
Regarding `FC(F)(F)Oc1ccc2c(Nc3ccc(Cl)c(Cl)c3)cc(C(F)(F)F)nc2c1` [Compound 32], under setting [2], the MIC was 0.5 to 1 µg/mL (≈ 1.13 to 2.27 µM).
As to `FC(F)(F)Oc1cccc(Nc2cc(C(F)(F)F)nc3cc(OC(F)(F)F)ccc23)c1` [Compound 33], the MIC is 1 µg/mL (≈ 2.19 µM) under setting [1] and 0.5 to 1 µg/mL (≈ 1.1 to 2.19 µM) under setting [2].
`FC(F)(F)Oc1ccc2c(Nc3ccc(C(F)(F)F)cn3)cc(C(F)(F)F)nc2c1` [Compound 34]: the MIC under setting [1] came out at 1 µg/mL (≈ 2.27 µM) and the MIC under setting [2] was 0.5 to 1 µg/mL (≈ 1.13 to 2.27 µM).
In the case of `COc1ccc2c(Nc3ccc(Cl)c(Cl)c3)cc(C(F)(F)F)nc2c1` [Compound 35], the MIC under setting [2] was determined as 2 µg/mL (≈ 5.17 µM).
Consider `COc1ccc2c(Nc3ccc(F)c(F)c3)cc(C(F)(F)F)nc2c1` [Compound 36], for which, under setting [2], the MIC was more than 32 µg/mL.
Regarding `COc1ccc2c(Nc3cccc(OC(F)(F)F)c3)cc(C(F)(F)F)nc2c1` [Compound 37], the MIC under setting [2] was more than 32 µg/mL.
Consider `COc1ccc2c(Nc3ccc(C(F)(F)F)cn3)cc(C(F)(F)F)nc2c1` [Compound 38], for which, under setting [2], the MIC stood at 32 µg/mL (≈ 82.6 µM).
On the same count and under the same terms, then `FC(F)(F)Oc1cccc2c(Nc3ccc(Cl)c(Cl)c3)cc(C(F)(F)F)nc12` [Compound 42], with 0.5 µg/mL (≈ 1.13 µM).
`FC(F)(F)Oc1cccc(Nc2cc(C(F)(F)F)nc3c(OC(F)(F)F)cccc23)c1` [Compound 43] returned an MIC under setting [1] of 1 µg/mL (≈ 2.19 µM).
As for `FC(F)(F)Oc1cccc2c(Nc3ccc(C(F)(F)F)cn3)cc(C(F)(F)F)nc12` [Compound 44], under setting [2], the MIC came out at 1 µg/mL (≈ 2.27 µM).
Turning to `FC(F)(F)c1cc(Nc2ccc(Cl)c(Cl)c2)c2cccc(C(F)(F)F)c2n1` [Compound 45], the MIC under setting [2] fell in the range of 0.5 to 2 µg/mL (≈ 1.18 to 4.7 µM).
The same measure, in the same setting: then `FC(F)(F)c1cccc(Nc2cc(C(F)(F)F)nc3c(C(F)(F)F)cccc23)c1` [Compound 46], with 1 µg/mL (≈ 2.36 µM); and `FC(F)(F)c1ccc(Nc2cc(C(F)(F)F)nc3c(C(F)(F)F)cccc23)nc1` [Compound 47], with 0.5 µg/mL (≈ 1.18 µM).
Consider `FC(F)(F)c1ccc2c(Nc3cc(Cl)ccn3)cc(C(F)(F)F)nc2c1` [Compound 48], for which the “fold loss of potency (MIC) relative to the comparator” value (MRSA FPR3757 MIC ratio) is given as 8 fold. Also, the MIC under setting [2] came out at 2 µg/mL (≈ 5.11 µM).
Consider `FC(F)(F)c1ccc2c(Nc3ccc(C(F)(F)F)nc3)cc(C(F)(F)F)nc2c1` [Compound 49], for which, under setting [2], the minimal inhibitory concentration (MIC) is more than 32 µg/mL.
On the same count and under the same terms, in the case of `Cn1cc(Nc2cc(C(F)(F)F)nc3cc(C(F)(F)F)ccc23)ccc1=O` [Compound 50] it was more than 32 µg/mL.
On the same count and under the same terms, then `Oc1ncccc1Nc1cc(C(F)(F)F)nc2cc(C(F)(F)F)ccc12` [Compound 51], with more than 128 µg/mL.
Consider `O=c1cc(Nc2cc(C(F)(F)F)nc3cc(C(F)(F)F)ccc23)cc[nH]1` [Compound 52], for which the MIC under setting [2] is more than 32 µg/mL.
In the case of `FC(F)(F)c1ccc2c(Nc3ccncc3)cc(C(F)(F)F)nc2c1` [Compound 53], the MIC is, setting by setting: under setting [1], more than 32 µg/mL; (Staphylococcus aureus, MRSA, MRSA clinical strain FPR3757, Mueller-Hinton broth, CLSI guidelines, complete inhibition of observable growth) more than 32 µg/mL.
Take `COC(=O)c1cc(Nc2cc(C(F)(F)F)nc3cc(C(F)(F)F)ccc23)ccn1` [Compound 54]: the MIC runs as follows: under setting [1], more than 32 µg/mL; under setting [2], more than 32 µg/mL.
`FC(F)(F)c1ccc2c(Nc3nccs3)cc(C(F)(F)F)nc2c1` [Compound 55]: the MIC under setting [1] was 1 to 2 µg/mL and the minimal inhibitory concentration (MIC) under setting [2] is 2 µg/mL (≈ 5.51 µM).
On to `FC(F)(F)c1ccc2c(Nc3ncccn3)cc(C(F)(F)F)nc2c1` [Compound 56], for which the minimum inhibitory concentration (MIC) runs as follows: under setting [1], more than 32 µg/mL; under setting [2], more than 32 µg/mL.
